Experimental data: patent US20090317357A1, “Methods for treating or preventing autoimmune disease using histamine h1 receptor-blocking agents” (priority 2003, published 2009)

Columns and labels:
EAE in SJL (H-2s) mice = experiment: EAE induced with PLP139-151 in SJL mice, daily i.p. treatment with H1R or PAFR antagonist; format: in vivo; settings: day 13, daily i.p. from day 2 after induction, pyrilamine 0.6 mg/mouse, CV6209 1 μg/mouse, vehicle group 3±0.52
Procedure: Modulation of EAE with H1R antagonist and PAFR antagonist. EAE was induced in SJL/J mice with PLP139-151. The H1R antagonist pyrilamine (0.6 mg/mouse; n=8), PAFR antagonist CV6209 (1 μg/mouse; n=8), or vehicle alone (PBS; n=7) were given daily i.p. starting on day 2 after the induction of EAE.
Mice were assessed daily for clinical signs of EAE (see id.). For each mouse, a remission was defined as decrease of the score of at least one point for at least 2 consecutive days. […] In the pharmacological studies, the histamine receptor 1 antagonist, pyrilamine (Sigma, St Louis, Mo.) and the PAF antagonist, CV6209 (Biomol, Plymouth Meeting, Pa.) were injected daily i.p. in PBS starting 2 days after the induction of EAE.
We targeted pharmacologically PAF and histamine, the main vasoactive mediators of murine anaphylaxis, and evaluated the development of EAE. EAE was induced in SJL (H-2s) mice with PLP139-151 and on the second day after the induction of the disease we started a daily i.p. treatment with the PAFR antagonist CV 6209, or with the H1R antagonist pyrilamine.

EAE = settings: cited: Inaba et al. 1999; Inoue et al. 1996; cited from earlier work

Compound | mean EAE score (EAE in SJL (H-2s) mice) | effect on EAE (EAE)
CCCCCCCCCCCCCCCCCCNC(=O)OCC(COC(=O)N(Cc1cccc[n+]1CC)C(C)=O)OC (stereo not shown) [CV 6209] | 0.71±0.36 | 
COc1ccc(CN(CCN(C)C)c2ccccn2)cc1 [pyrilamine] | 0.57±0.2 | 
batroxobin |  | ameliorate EAE
dermatan sulfate |  | ameliorate EAE
